Assays:
Male NMRI mice = experiment: Mouse Tail Suspension In Vivo Assay; conditions: for Immobilization Time (sec); (mean ± SEM): single dose 30 min prior to tail suspension
Description: The tail suspension test (TST) is an acute test of anti-depressant activity.
Male NMRI mice (25-30 g; n=13-15 mice per dose) were given a single dose of vehicle (aqueous solution of 1 equivalent tartaric acid+0.45% NaCl+10% cyclodextrin, i.p.), imipramine (20 mg/kg, i.p. in an aqueous solution of 0.9% NaCl) or Compound #1 (at 5, 10, 20, 40 or 80 mg/kg, i.p.) 30 min prior to tail suspension. In this test, the mice were submitted to an unpleasant and inescapable situation (hanging by the tail) for 6 min. Once suspended, motor activity diminished rapidly and the mice became immobile. A compound was considered active as an antidepressant in this model, when there was a reduction in immobility time. Viewpoint video-tracking software was utilized to record immobility time.
Therefore, a compound which is not active in this model may nonetheless be active as an antidepressant.

Male C57BL/6 mice = experiment: Mouse Forced Swim Test; format: in vivo; conditions: not statistically significant (p=0.19)
Description: The forced swim test (FST) is an acute test of anti-depressant activity. Note that in this test, antidepressant-like compounds such as tricyclics, MAO inhibitors, SSRIs and others show activity, although the level of measured activity can vary with strain differences.
Male C57BL/6 mice (˜25 g; n=10 mice per dose) were given a single dose of vehicle (an aqueous solution of 1 equivalent tartaric acid+0.45% NaCl+10% cyclodextrin, s.c.), Compound #1 (at 5, 10, 20, 40 or 80 mg/kg, s.c.) or imipramine (10 mg/kg, i.p. in an aqueous solution of 0.9% NaCl) 30 min prior to entrance into the swim chamber. In this test, mice were placed in a water-filled cylinder in which they were unable to escape or touch the bottom of the chamber for 6 min. Once immersed in water, motor activity diminished rapidly and the mice became immobile. Viewpoint video-tracking software was utilized to record immobility time. Other common behaviors such as swimming and climbing activity were not measured in this study.

submissive rats = experiment: Dominant-Submissive Competition: Reduction of Submissive Behavior Model (RSBM); format: in vivo, Male Sprague Dawley rats
Description: Dominance and submissiveness, defined in a competition test and measured as the relative success of two food-restricted rats to gain access to a feeder, form a behavioral paradigm—the Dominant Submissive Relationship (DSR). This paradigm results in two models which are predictive of ability of test compounds (drugs) to treat mood disorders.
Test compounds are evaluated for either their ability to inhibit the dominant behavior of rats taking food at the expense of an opponent (reduction of dominant behavior model or RDBM) and thus their potential as treatments for mania; or for their ability to increase the competitive behavior of submissive rats losing such encounters (reduction of submissive behavior model or RSBM) and thus their potential as treatments for depression; (Malatynska, E., and Knapp, R. J., Neuroscience and Biobehavioral Review, 29 (2005) 715-737). […]
The basic testing apparatus consisted of two chambers connected with a tunnel only large enough to allow one rat to pass through at a time. […] During the five-minute daily sessions, time spent in the feeder zone by each rat was recorded by the video tracking software and saved into a text file.
The test began with a random assignment of rats into pairs. […] The time spent in the feeder zone by each animal was recorded. […]

[1] = Drug concentration in terminal plasma and brain of RSBM rats (LC-MS-MS); format: in vivo, Male Sprague Dawley rats; conditions: submissive rats treated with increasing doses (6, 30, 60 mg/kg p.o. BID)
From the text: Rats were housed four per cage. Access to food was restricted to one hour per day after testing on Monday through Thursday. After testing on Friday, rats had free access to food until being fasted again on Sunday. At no time were the rats deprived of water. The food deprivation periods used had little effect on weight gain as the average weight of rats was about 300 g at the end of the study. At the conclusion of experiment rats were sacrificed by decapitation, the trunk blood and brains were collected for in vitro experiments and drug concentration measurements.
Terminal blood samples (0.5-1.0 mL) were collected post experiment into heparinized tubes. Blood samples were centrifuged for cell removal, and 200 μL of plasma supernatant was then transferred to a clean vial, placed on dry ice, and subsequently stored in a −80° C. freezer prior to analysis. Two hundred microliters of acetonitrile containing internal standard was added to 100 μL of plasma or brain tissue to precipitate proteins and/or tissue residues. Samples were centrifuged and supernatant removed for analysis by liquid chromatography-triple quadruple mass spectrometry (LC-MS-MS). […] Calibration standards were prepared in the range of 0.01 to 10 μM for quantitation. […]

Which “decrease in immobility time” value (Male NMRI mice; 20 mg/kg i.p. versus vehicle (71 sec), p=0.0004) does the source give for `CN(C)CCCN1c2ccccc2CCc2ccccc21` [Imipramine, reference compound] here?
The value was 75%.

What about the “Immobilization Time (sec); (mean ± SEM)” value (Male NMRI mice; 20 mpk i.p.) of the same molecule?
The value was 18.0 ± 5.8 s.

And the “Immobilization Time (sec); (mean ± SEM)” value (Male NMRI mice; 20 mpk i.p., listed as imipramine)?
The value was 18 s.

What about the “decrease in immobility time” value (Male C57BL/6 mice; 10 mg/kg i.p. versus vehicle (152 sec)) of the same molecule?
Its value is 20%.

What about the immobility time (Male C57BL/6 mice; 10 mg/kg i.p., vehicle=152 sec) of the same molecule?
Its immobility time is 122 s.

Which results are given for `NS(=O)(=O)NCc1csc2ccccc12` [Compound #1, N-(benzorblthien-3-vimethyl)-sulfamide]?
Immobilization Time (sec); (mean ± SEM) (Male NMRI mice; 5 mpk i.p.): 66.1 ± 10.1 s; Immobilization Time (sec); (mean ± SEM) (Male NMRI mice; 10 mpk i.p.): 96.4 ± 12.4 s; Immobilization Time (sec); (mean ± SEM) (Male NMRI mice; 20 mpk i.p.): 110.1 ± 15.8 s; Immobilization Time (sec); (mean ± SEM) (Male NMRI mice; 40 mpk i.p.): 100.5 ± 13.9 s; Immobilization Time (sec); (mean ± SEM) (Male NMRI mice; 80 mpk i.p., increase resembled sedation (p=0.003)): 160 s; Immobilization Time (sec); (mean ± SEM) (Male NMRI mice; 80 mpk i.p., increase resembled sedation (p=0.003), listed as #1): 160.4 ± 10.7 s; statistical significance of the reduction of submissive behavior (submissive rats; after 17 days of treatment with 60 mg/kg, p<0.01): statistically significant; reduction of submissive behavior (submissive rats; submissive rats treated p.o. BID at 6, 30 or 60 mg/kg): reduced submissive behavior in a dose-dependent manner; exposure in plasma and brain [1]: linear increase in exposure both in plasma and brain

— US20070191449A1, “Use of Benzo-Heteroaryl Sulfamide Derivatives for the Treatment of Depression” (priority 2006, published 2007)
